The record followed here is patent US6900181B2, “Pharmaceutical composition” (Renovo Limited, priority 1995, dated 2005).

The subject of assay [1] is linear full thickness incisions on the dorsal skin. In words: Rat full thickness incisional wound healing and scarring model, intradermal injection to the wound margins. The class given is in vivo, Sprague Dawley rats. The settings on record: for scarring / dermal architecture (histology): 80 days post wounding; for effect on wound healing (histological analysis): 10, 20, 40 mM at wounding and daily for following seven days, compared with PBS controls; for immunocytochemical analysis (fibronectin staining, monocyte/macrophage profiles): vs PBS controls; for histological analysis: 40 days post wounding. On the procedure: Adult male Sprague Dawley rats (200-250 g) were anaesthetised using equal parts halothane, nitrous oxide and oxygen. Four linear full thickness incisions, 1 cm in length to the depth of the panniculus carnosus were made on the dorsal skin, 1 cm from the midline and 5 and 8 cm from the base of the skull. The wounds were left unsutured to heal by secondary intention. Experimental treatments were administered by intradermal injection to the wound margins (50 μl down each wound margin). At selected time points animals were killed by chloroform overdose. Wounds were excised from the surrounding tissue and bisected. Half the wounds were rapidly frozen in OCT for cryosection and immunoctyochemistry and half fixed in formaldehyde for wax embedding and histology. Wax sections were routinely stained with haematoxylin and eosin, picrosirius red and Massons Lille trichrome, to display collagen fibre thickness, density and orientation to enable assessment of scar quality. […] A range of doses (10 mM, 20 mM and 40 mM) was studied for each sugar, with PBS (phosphate buffered saline) as a control. Treatments were administered at the time of wounding and each day for the following seven days. Two animals per dose were studied at each of the three time points (7, 40 and 80 days post wounding) for each compound. […]. […] Treatments were administered at the time of wounding and each day for the following two days. One animal per dose was studied at each of the two time points (7 and 80 days post wounding). Total n=4. […] Department of Pharmacy, University of Manchester. A single concentration (20 mM) of this compound was studied, with PBS as a control. The time of administration varied to the previous experiments. Animals were split into three groups and treated on day 0 alone, days 0, 2 and 4, or days 0 to 7 inclusive. Two animals per treatment regime were studied at each of the three time points (3, 7 and 80 days) Total n=18.

Assay [2] concerns wounds. In words: Experimental work treating wounds with other sugars. The format is in vivo. The settings on record: for effect on wound healing: compared with controls; for effect on scarring: in vivo. An excerpt:
Galactose-6-phosphate and glycerol-3-phosphate have no effect upon either wound healing or scarring.

In assay [3] the target is M6P/IGF II (insulin-like growth factor II) receptor (Homo sapiens, UniProt P11717). Briefly: ELISA-type assay using purified M6P/IGF II receptor. The class given is binding. The settings on record: initial results; compared with M6P. The text has this:
In addition to the animal studies an ELISA-type assay using purified M6P/IGF II (insulin-like growth factor II) receptor was developed to determine if these analogues of M6P bind to the M6P/IGF II receptor.

Where [4] appears, read: 7 days post wounding, 10, 20, 40 mM.
[5] abbreviates: 10, 20, 40 mM, F1P effect particularly at 40 mM.

Sequence of M6P/IGF II (insulin-like growth factor II) receptor (P11717 41-2491): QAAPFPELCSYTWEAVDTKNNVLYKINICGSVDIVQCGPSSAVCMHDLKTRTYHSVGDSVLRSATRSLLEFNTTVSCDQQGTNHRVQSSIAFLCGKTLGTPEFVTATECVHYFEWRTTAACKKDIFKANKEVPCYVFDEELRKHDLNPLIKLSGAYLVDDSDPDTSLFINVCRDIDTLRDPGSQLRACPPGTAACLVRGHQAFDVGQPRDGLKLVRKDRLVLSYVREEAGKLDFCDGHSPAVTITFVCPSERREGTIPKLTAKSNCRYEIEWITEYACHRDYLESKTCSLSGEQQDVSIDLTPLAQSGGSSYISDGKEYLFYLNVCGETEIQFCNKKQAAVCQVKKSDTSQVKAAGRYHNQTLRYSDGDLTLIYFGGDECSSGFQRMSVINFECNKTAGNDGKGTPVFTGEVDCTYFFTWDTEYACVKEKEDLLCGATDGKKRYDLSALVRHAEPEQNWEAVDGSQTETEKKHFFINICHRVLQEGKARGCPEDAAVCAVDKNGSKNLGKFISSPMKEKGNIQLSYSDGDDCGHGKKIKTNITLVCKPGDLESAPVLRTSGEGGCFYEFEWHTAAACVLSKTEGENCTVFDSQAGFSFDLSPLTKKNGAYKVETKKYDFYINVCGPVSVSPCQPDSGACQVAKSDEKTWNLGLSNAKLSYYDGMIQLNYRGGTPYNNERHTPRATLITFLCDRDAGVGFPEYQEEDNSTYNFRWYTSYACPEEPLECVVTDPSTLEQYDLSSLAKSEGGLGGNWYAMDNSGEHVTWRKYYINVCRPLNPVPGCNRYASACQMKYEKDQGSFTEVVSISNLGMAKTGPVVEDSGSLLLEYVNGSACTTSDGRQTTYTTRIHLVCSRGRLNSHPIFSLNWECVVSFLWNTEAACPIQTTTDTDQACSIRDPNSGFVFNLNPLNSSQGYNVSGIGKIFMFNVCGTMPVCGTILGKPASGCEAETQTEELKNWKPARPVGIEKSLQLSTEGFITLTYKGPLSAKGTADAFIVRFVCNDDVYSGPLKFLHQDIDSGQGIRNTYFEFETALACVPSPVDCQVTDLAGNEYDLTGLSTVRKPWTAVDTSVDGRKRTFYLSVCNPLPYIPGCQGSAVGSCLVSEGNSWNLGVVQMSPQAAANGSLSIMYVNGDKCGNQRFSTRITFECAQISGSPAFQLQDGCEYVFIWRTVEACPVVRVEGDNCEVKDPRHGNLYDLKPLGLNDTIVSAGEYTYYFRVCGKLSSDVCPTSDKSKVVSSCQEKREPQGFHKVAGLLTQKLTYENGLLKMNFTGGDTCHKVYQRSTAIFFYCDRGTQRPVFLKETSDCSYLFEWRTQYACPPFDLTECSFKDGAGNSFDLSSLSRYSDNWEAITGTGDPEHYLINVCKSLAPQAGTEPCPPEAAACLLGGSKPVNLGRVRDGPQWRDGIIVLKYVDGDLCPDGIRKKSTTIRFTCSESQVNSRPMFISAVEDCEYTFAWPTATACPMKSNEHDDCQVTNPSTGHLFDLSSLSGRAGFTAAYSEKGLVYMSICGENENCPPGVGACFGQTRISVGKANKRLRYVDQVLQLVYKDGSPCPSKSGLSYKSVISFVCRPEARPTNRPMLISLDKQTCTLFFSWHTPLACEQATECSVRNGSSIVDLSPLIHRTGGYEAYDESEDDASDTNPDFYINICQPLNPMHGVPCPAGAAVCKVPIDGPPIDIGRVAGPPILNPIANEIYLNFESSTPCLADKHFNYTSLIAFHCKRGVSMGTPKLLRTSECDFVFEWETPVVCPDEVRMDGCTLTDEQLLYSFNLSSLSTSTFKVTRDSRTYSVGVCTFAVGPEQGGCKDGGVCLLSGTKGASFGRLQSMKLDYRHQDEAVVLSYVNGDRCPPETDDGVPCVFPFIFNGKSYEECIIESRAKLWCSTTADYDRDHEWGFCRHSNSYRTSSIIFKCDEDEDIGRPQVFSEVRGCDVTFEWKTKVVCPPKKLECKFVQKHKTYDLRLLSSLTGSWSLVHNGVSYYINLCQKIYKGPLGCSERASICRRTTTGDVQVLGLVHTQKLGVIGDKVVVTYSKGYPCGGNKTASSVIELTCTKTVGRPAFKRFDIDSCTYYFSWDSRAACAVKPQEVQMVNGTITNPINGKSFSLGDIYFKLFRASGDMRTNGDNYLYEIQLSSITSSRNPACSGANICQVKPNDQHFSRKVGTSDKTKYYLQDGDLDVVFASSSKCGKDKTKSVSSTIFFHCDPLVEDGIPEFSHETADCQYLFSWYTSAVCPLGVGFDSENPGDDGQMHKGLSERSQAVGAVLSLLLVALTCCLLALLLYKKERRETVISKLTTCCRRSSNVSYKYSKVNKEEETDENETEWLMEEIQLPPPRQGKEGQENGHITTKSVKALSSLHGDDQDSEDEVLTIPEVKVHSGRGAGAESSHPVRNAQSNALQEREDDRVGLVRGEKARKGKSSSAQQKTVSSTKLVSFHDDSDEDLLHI

Take `O=C[C@@H](O)[C@@H](O)[C@H](O)[C@H](O)COP(=O)(O)O` [M6P, mannose-6-phosphate]: the “histological analysis of treated wounds vs PBS controls” value in assay [1] (7 days post wounding, 10 or 20 mM, or 10 mM + 10 mM M6P, at wounding and each day for following two days) is reported as “none of the treated wounds appeared different to PBS controls”. For the same compound, in assay [1] (10 or 20 mM, or 10 mM + 10 mM M6P, at wounding and each day for following two days, vs controls), the “scarring / dermal architecture (histology)” value is reported as “improvement in scarring”.

For the compound `O=C(COP(=O)(O)O)[C@@H](O)[C@H](O)[C@H](O)CO` [F1P, fructose-1-phosphate], in assay [1] (7 days post wounding), the “effect on wound healing (histological analysis)” value is “neither F1P or Malt1P had any effect on wound healing”. Also, the “immunocytochemical analysis (fibronectin staining, monocyte/macrophage profiles)” value in assay [1] (setting [4]) is recorded as “treated wounds resembled controls”. The histological analysis result in assay [1] (10, 20, 40 mM) is listed as “inconsistent, with no clear trend”. In addition, the “scarring / dermal architecture (histology)” value in assay [1] (setting [5]) is reported as “reduce scarring more significantly”.

As to `O=C[C@H](O)[C@@H](O)[C@@H](O)[C@H](O)COP(=O)(O)O` [Galactose-6-phosphate], in assay [2], the “effect on wound healing” value is given as “no effect” and the effect on scarring entry is given as “no effect”.

In the case of `O=P(O)(O)OCC(O)CO` (stereo not drawn) [glycerol-3-phosphate], in assay [2], the “effect on wound healing” value is recorded as “no effect” and the effect on scarring result is on record as “no effect”.

In the case of `O=P(O)(O)O[C@H]1O[C@H](CO)[C@@H](O[C@H]2O[C@H](CO)[C@@H](O)[C@H](O)[C@H]2O)[C@H](O)[C@H]1O` [Malt1P, maltose-1-phosphate], the “effect on wound healing (histological analysis)” value in assay [1] (7 days post wounding) is recorded as “neither F1P or Malt1P had any effect on wound healing”. Moreover, the “immunocytochemical analysis (fibronectin staining, monocyte/macrophage profiles)” value in assay [1] (setting [4]) is “treated wounds resembled controls”. Moreover, the histological analysis result in assay [1] (10, 20, 40 mM) is recorded as “inconsistent, with no clear trend”. Further, the “scarring / dermal architecture (histology)” value in assay [1] (setting [5]) is recorded as “improve the dermal architecture very slightly”. In addition, in assay [3], the “binding to the M6P/IGF II receptor” value is “does not bind”.
